Values after ≈ are worked out from the molar mass of the structure shown. Read-outs that look alike come from different tables or passages of the source.
Assays:
[1] = cited from earlier work; for water solubility: atazenavir: as a free base
[2] = free base; preclinical animal models; cited from earlier work
[3] = In vitro dissolution rate of the AZI (2015 Chinese pharmacopoeia, deionized water, 37° C., UV 482 nm); type: physicochemical; details: at 120 min, 100 rpm
Procedure: The original AZI powder was dissolved in anhydrous ethanol to form a solution with a concentration of 2 mg/ml under ultrasonic dispersion at room temperature. Subsequently, hydrochloric acid (0.1 M) was added into the AZI solution to form a series of AZI solution with different concentrations (16, 32, 48, 64, 80, 96 μg/ml). Then, 5 ml of each AZI sample and 5 ml of sulfuric acid (73.5%) were added into a test tube and mixed, after that the resultant mixture was kept for reaction for 30 min at the room temperature. Finally, UV absorption was measured at a wavelength of 482 nm to determine the concentration of the AZI solution, and a standard AZI curve can be plotted.
The dissolution rate was determined according to the method of 2015 Chinese pharmacopoeia (XC II). Firstly, 2 mg of AZI was placed in 100 ml of deionized water, and stirred at 100 rpm and 37° C. […]
Then, 2 ml sulfuric acid (73.5%) and 2 ml of the resultant filtrate were added to a test tube to form a mixture, and the mixture was kept for 30 min. Finally, UV absorption was measured at a wavelength of 482 nm to determine the AZI concentration. The dissolution rate of AZI was calculated using Eq. 2: Dissolution rate (%)=(Cn×V2+C1×V1+C2×V1+ . . . +Cn-1×V1)×100%/m (2) […]

For `COC(=O)N[C@H](C(=O)N[C@@H](Cc1ccccc1)[C@@H](O)CN(Cc1ccc(-c2ccccn2)cc1)NC(=O)[C@@H](NC(=O)OC)C(C)(C)C)C(C)(C)C` [atazenavir], the water solubility [1] is given as < 1 µg/mL and the oral bioavailability [2] is given as “poor oral bioavailability”.
In the case of `CC(C(=O)O)c1ccc2c(c1)[nH]c1ccc(Cl)cc12` (stereo not drawn) [carprofen], the solubility in water [1] is given as 3.79 µg/mL (≈ 13.8 µM) and the solubility in water ([1]; value in brackets) is given as 3.79 µg/mL (≈ 13.8 µM).
For `CC[C@H]1OC(=O)[C@H](C)[C@@H](O[C@H]2C[C@@](C)(OC)[C@@H](O)[C@H](C)O2)[C@H](C)[C@@H](O[C@@H]2O[C@H](C)C[C@H](N(C)C)[C@H]2O)[C@](C)(O)C[C@@H](C)CN(C)[C@H](C)[C@@H](O)[C@]1(C)O` [original AZI, Azithromycin], the “dissolution rate of AZI” value [3] was 1.31%.
For `CCOc1cc(CC(=O)N[C@@H](CC(C)C)c2ccccc2N2CCCCC2)ccc1C(=O)O` [repaglinide], the water solubility [1] is listed as 37 µg/mL (≈ 81.8 µM).

From patent US11723867B2, “Method for preparing pharmaceutical composition and pharmaceutical composition” (UPM-Kymmene Corporation, priority 2019, dated 2023)
